Experiments:
[1] = Lethal doses / percentage mortality; format: in vivo; conditions: in vivo, mouse; for LD50: po, Table IX, read-out: DE 50 (second column; DL 50) (converted)
Description: As a result of a comparison between the pharmacologically active doses mentioned above, and the lethal doses listed in the following table XIV, the difference between the doses is sufficiently great to permit the utilisation of the derivatives of formula I in therapeutics.

[2] = test system: volume of urine emitted; test: Augmentation of urinary elimination (diuretic properties); format: in vivo; conditions: po; mouse, 25mg/kg/p.o., 6 hours; read-out: Percentage augmentation of urinary elimination
Procedure: The derivatives of formula I, administered by oral means to the mouse, simultaneously with a volume of 1ml of an isotonic solution of sodium chloride per 25g of the corporeal weight of the mouse, are capable of provoking an augmentation of the volume of urine emitted by reference to control animals, the volume being measured for 6 hours following administration.
The following Table VII indicates, by way of example the percentage augmentation of urinary elimination resulting from the administration of 25mg/kg/p.o. of different derivatives of formula I.

[3] = test system: arterial pressure of anaesthetised rat; test: Lowering of arterial pressure of anaesthetised rat (hypotensive properties); format: in vivo; conditions: 1 mg/kg/i.v.; for Duration of effect: hypotensive effect
Description: Administered by intraveinous means to an anaesthetised rat, the derivatives of formula I provoke a lowering of the arterial pressure.
By way of example, the following Table VIII mentions the results obtained by administration of different derivatives of formula I.

[4] = test system: painful stretchings caused by phenylbenzoquinone; test: Analgesic test with phenylbenzoquinone (painful stretchings); format: in vivo; conditions: Mus musculus, po; for ED50: read-out: 105 DE (DE 50)
[5] = test system: local oedema caused by sub-plantar injection of carraghenine; test: Sub-plantar oedema caused by carraghenine (antiinflammatory); format: in vivo, rat; conditions: rat, read-out: Percentage reduction of subplantar oedema; for inhibition in vivo at 100 mg/kg: 100 mg/kg/PO
Description: These properties are shown by a diminution of the local oedema caused by the sub-plantar injection of a phlogogenic agent, such as carraghenine, in the rat following the oral administration of derivatives of formula I.

[6] = test system: Shay ulcers; test: Gastric ulcers provoked by tying of the pylorus (Shay ulcers); format: in vivo; conditions: intraduodenal; rat, 50mg/kg/i.d.; read-out: Percentage reduction of shay ulcers
Procedure: The derivatives of formula I, administered by oral means, reduce the extent of gastric ulcers provoked in a rat by tying of the pylorus (Shay ulcers)
Table IV indicated, by way of example, the results obtained by the administration of 50mg/kg/i.d. of different derivatives of formula I.

[7] = test system: number of explorations in the escape enclosure; test: Number of explorations in the escape enclosure (sedative properties); format: in vivo, mouse; conditions: po; mouse, escape enclosure, 100mg/kg/p.o.; read-out: Percentage diminution of number of explorations
[8] = test system: isolated heart of guinea-pig; test: Augmentation of flow of coronary vessels of isolated heart (vasodilatatory); conditions: Cavia porcellus, read-out: Percentage augmentation of flow of isolated heart of guinea-pig; for activation at 1 µg/mL: 1 μg/ml
Procedure: The derivatives of formula I are capable of augmenting the flow of the coronary vessels of this isolated heart of a guinea - pig, when said derivatives are added in the perfusion liquid of said organ.
The percentage augmentation of the flow of the isolated heart of the guinea - pig by adding different derivatives of formula I to the perfusion liquid are given by way of example in the following Table V.

[9] = read-out: Percentage of diminution of the number of painful stretchings

Cc1cc(Nc2ccc(OCCN3CCCCC3)cc2)nc(-c2ccccc2)n1 [730 221]
mortality ([1]; 520 mg/kg/PO): ~50%

Cc1cc(Nc2ccccc2C(N)=O)nc(-c2cccc(F)c2)n1 [72 783]
mortality ([1]; 2000 mg/kg, 2 000 mg/kg/PO): 0%
change in vivo at 25 mg/kg [2]: 80%

Cc1cc(Nc2ccc(OCCN3CCOCC3)cc2)nc(-c2ccc(N(C)C)cc2)n1 [740 140]
Percentage reduction of arterial pressure of anaesthetised rat [3]: 40%
Duration of effect [3]: 30 mn
mortality ([1]; 2000 mg/kg, 2 000 mg/kg/PO): 0%
LD50 [1]: > 2000 mg/kg
ED50 [4]: 33 mg/kg

Cc1cc(Nc2ccc(C(=O)N(C)C)cc2)nc(-c2ccc(Cl)cc2)n1 [72 327]
Percentage reduction of arterial pressure of anaesthetised rat [3]: 30%
Duration of effect [3]: 30 mn
mortality ([1]; 2000 mg/kg, 2 000 mg/kg/PO): 0%
change in vivo at 25 mg/kg [2]: 85%
inhibition in vivo at 100 mg/kg [5]: 35%

COc1cc(-c2nc(C)cc(Nc3ccc(C(=O)N4CCCCC4)cc3)n2)cc(OC)c1OC [72 317]
mortality ([1]; 2000 mg/kg, 2 000 mg/kg/PO): 0%
inhibition in vivo at 50 mg/kg [6]: 40%
inhibition in vivo at 100 mg/kg [5]: 35%

Cc1cc(Nc2ccc(CC(=O)O)cc2)nc(-c2cccc(F)c2)n1 [730 234]
mortality ([1]; 2 400 mg/kg/PO): ~50%
inhibition in vivo at 100 mg/kg [4, 9]: 55%
inhibition in vivo at 100 mg/kg [5]: 35%

Cc1cc(Nc2ccc(OCCN3CCCCC3)cc2)nc(-c2cccc(F)c2)n1 [730 231]
mortality ([1]; 975 mg/kg/PO): ~50%
LD50 [1]: 975 mg/kg
inhibition in vivo at 50 mg/kg [6]: 50%
ED50 [4]: 27 mg/kg

COc1cc(-c2nc(C)cc(Nc3ccc(C(=O)N4CCCC4)cc3)n2)cc(OC)c1OC [72 271, 2-(3',4',5'-trimethoxyphenyl)-4-(parapyrrolidinocarbonylphenylamino) -6-methyl pyrimidino]
mortality ([1]; 2000 mg/kg, 2 000 mg/kg/PO): 0%
inhibition in vivo at 100 mg/kg [5]: 35%
inhibition in vivo at 100 mg/kg [7]: 40%

Cc1cc(Nc2ccc(OCCN3CCCCCC3)cc2)nc(-c2cccc(Cl)c2)n1 [730 283]
mortality ([1]; 1000 mg/kg, 1 000 mg/kg/PO): ~50%
activation at 0.1 µg/mL ([8]; 0.1 μg/ml): 61%
inhibition in vivo at 50 mg/kg [6]: 45%
inhibition in vivo at 100 mg/kg [4, 9]: 57%

COc1cc(-c2nc(C)cc(Nc3ccccc3C(N)=O)n2)cc(OC)c1OC [72 442]
Percentage reduction of arterial pressure of anaesthetised rat [3]: 30%
Duration of effect [3]: 20 mn
mortality ([1]; 2000 mg/kg, 2 000 mg/kg/PO): 0%
inhibition in vivo at 100 mg/kg [4, 9]: 70%
inhibition in vivo at 100 mg/kg [5]: 55%
inhibition in vivo at 100 mg/kg [7]: 60%

Cc1cc(Nc2ccc(C(=O)N3CCN(c4ccccc4)CC3)cc2)nc(-c2ccc(Cl)cc2)n1 [72 260]
mortality ([1]; 2000 mg/kg, 2 000 mg/kg/PO): 0%
activation at 1 µg/mL [8]: 70%
inhibition in vivo at 50 mg/kg [6]: 35%

Cc1cc(Nc2ccc(C(N)=O)cc2)nc(-c2cccc(F)c2)n1 [72 773]
mortality ([1]; 2000 mg/kg, 2 000 mg/kg/PO): ~20%
change in vivo at 25 mg/kg [2]: 110%
inhibition in vivo at 50 mg/kg [6]: 40%
inhibition in vivo at 100 mg/kg [5]: 40%
inhibition in vivo at 100 mg/kg [7]: 45%

Cc1cc(Nc2ccc(OCCN(C)C)cc2)nc(-c2cccc(F)c2)n1 [730 224]
mortality ([1]; 2000 mg/kg, 2 000 mg/kg/PO): 0%
LD50 [1]: > 2000 mg/kg
ED50 [4]: 30 mg/kg

Cc1cc(Nc2ccccc2C(=O)OCC(O)CO)nc(-c2ccc3c(c2)OCO3)n1 (stereo not drawn) [72 686]
mortality ([1]; 2000 mg/kg, 2 000 mg/kg/PO): 0%
inhibition in vivo at 130 mg/kg [4, 9]: 50%
inhibition in vivo at 25 mg/kg ([5]; 25 mg/kg/PO): 35%

Cc1cc(Nc2ccc(OCCN3CCOCC3)cc2)nc(-c2ccc(Cl)cc2)n1 [730 732]
mortality ([1]; 2000 mg/kg, 2 000 mg/kg/PO): 0%
LD50 [1]: > 2000 mg/kg
ED50 [4]: 23 mg/kg

Cc1cc(Nc2ccc(C(=O)N3CCOCC3)cc2)nc(-c2cccc(F)c2)n1 [72 754]
mortality ([1]; 2000 mg/kg, 2 000 mg/kg/PO): 0%
change in vivo at 25 mg/kg [2]: 50%
inhibition in vivo at 50 mg/kg [6]: 40%

Cc1cc(Nc2ccc(C(=O)N3CCN(C)CC3)cc2)nc(-c2ccc(Cl)cc2)n1 [72 292]
mortality ([1]; 2000 mg/kg, 2 000 mg/kg/PO): 0%
change in vivo at 25 mg/kg [2]: 55%

Cc1cc(Nc2ccc(OCCN3CCCC3)cc2)nc(-c2cccc(C(F)(F)F)c2)n1 [730 243]
mortality ([1]; 1000 mg/kg, 1 000 mg/kg/PO): 0%
inhibition in vivo at 100 mg/kg [5]: 50%

Cc1cc(Nc2ccccc2C(N)=O)nc(-c2ccc(Cl)cc2)n1 [72 257]
mortality ([1]; 2000 mg/kg, 2 000 mg/kg/PO): 0%
activation at 1 µg/mL [8]: 80%
inhibition in vivo at 50 mg/kg [6]: 50%

From patent US3978055A, “Arylamino pyrimidinic derivatives” (priority 1973, dated 1976)
